Like-named read-outs stand apart in the source and are kept apart here.
Key:
DOHH2 cells = test: CellTiter-Glo cell viability assay, DOHH2 cells (Example 11); assay type: cell-based; settings: Homo sapiens, DOHH-2, DOHH2 parental cells
Experimental: (§1) DOHH2 cells were cultured in RPM11640 medium containing 10% calf serum, 1% antibiotics and 5 ug/ml verapamil (calcium ion channel blocker), and ibrutinib was added at a gradually increasing concentration from 0.5 uM to 10 uM. After exposure for about three months, a ibrutinib-resistant DOHH2R cell line was obtained, also referred to as DOHH2^R-ibrutinib. After DOHH2^R-ibrutinib was stabilized, it was continued to be cultured in culture medium containing 10 uM Ibrutinib to maintain its resistance. Ibrutinib is absent only in the susceptibility test with Compound 6 or 88.
(§2) Relative light units (RLU) were determined by a microplate reader (BioTek, Synergy H1 MF, USA). […] IC50 values were calculated using GraphPad Prism. IC50 was expressed as mean±standard deviation (SD).

DOHH2^R-ibrutinib cells = test: CellTiter-Glo cell viability assay, ibrutinib-resistant DOHH2R-ibrutinib cells; assay type: cell-based, human; settings: for IC50: Homo sapiens, ibrutinib-resistant cells, CellTiter-Glo, 24 or 72 hours, read-out: IC50 value to the DOHH2^R-ibrutinib cell line (cell viability)
Experimental: as §1, §2

[1] = system: various hematological malignancies cell lines including those from DLBCL and FL; test: Anti-proliferative activity as single agent in hematological malignancies cell lines (data not shown); assay type: cell-based
DOHH-2 cells = test: Flow cytometry analysis of apoptosis (Annexin V/PI), DOHH-2; assay type: cell-based, human; settings: DOHH-2, 24 hours; 10 nM Compound 6, 100 nM ibrutinib, or the combination
Experimental: (§3) Apoptosis was evaluated with AnnexinV/propidium iodide (PI) dyes (BD Biosciences, Cat. 556547) according to manufacturer's instructions. Briefly, cells were seeded in 24-well plates at a density 2×10^5 cells/well, and treated with Compound 6 and/or ibrutinib (Selleck) to induce apoptosis. After 24 h, cells were collected, washed twice with PBS (pH 7.4), and stained with Annexin-V and propidium iodide (PI) for 15 mins. Stained samples were analyzed using flow cytometer Attune NxT (Life technologies).
(§4) In the experiment, the combination treatment with Compound 6 and ibrutinib was evaluated for its ability of apoptosis induction on DOHH2 and OCI-LY1 cells by co-staining of Annexin-V/Propidium iodide (PI) followed by flow cytometry analysis (FIG. 7A). […] Flow cytometry analysis of apoptotic cells by Annexin V and propidium iodide (PI) co-staining in DOHH-2 and OCI-LY1 cell lines treated with 10 nM (DOHH-2) or 15 nM (OCI-LY1) Compound 6, 100 nM (DOHH-2) or 150 nM (OCI-LY1) ibrutinib, or the combination for 24 hours. Three independent experiments were conducted and the representative results are shown (7A). The percentages of Annexin V-positive, PI-positive, or double positive DOHH-2 (7B) and OCI-LY1 (7C) cells are plotted as bar charts and shown as mean±SEM (n=3) (**p<0.01, ***p<0.001).

[2] = system: human DOHH2 (FL) xenograft tumor; assay type: in vivo; settings: Cpd. 6 100 mg/kg, Ibrutinib 25 mg/kg; for TGI (%) on day 32 after administration: TGI = 100 − T/C%
Experimental: (§5) All animal experiments were strictly in accordance with the laboratory animal use and management practices of GenePharma Co., Ltd. and Ascentage Pharma Group Co., Ltd. The calculation of relevant parameters referred to the Chinese CFDA “Guidelines for Non-Clinical Research Techniques of Cytotoxic Antitumor Drugs”.
(§6) Animal body weight and tumor size were measured twice a week during the experiment. Tumor growth was observed periodically, and the animals were randomly divided into groups according to tumor size and mouse body weight when the tumors grew to an average volume of 100-200 mm^3. The conditions and death of the animals were observed every day. Routine monitoring included the effects of tumor growth and treatment on normal animal behaviors, including activity, feeding and drinking situations, weight gain or loss, eyes, coat and other abnormalities in the experimental animals. The deaths and clinical symptoms observed during the experiment were recorded in the raw data. The entire operations of administration, measurement of mouse body weight and tumor volume were performed in a clean bench. Plasma and tumor tissues were collected, weighed and photographed after the end of the last administration according to the experimental protocol. Plasma and tumor samples were frozen and stored at −80° C.
(§7) Tumor volume (TV) was calculated as: TV=a×b^2/2, in which a and b represented the length and width of the tumor as measured, respectively. The relative tumor volume (RTV) was calculated as: RTV=Vt/V1, in which V1 was the tumor volume at the time of grouping and administration, and Vt was the tumor volume measured on a day after administration. […] Change of body weight %=(measured body weight−body weight at the time of grouping)/body weight at the time of grouping×100%.
(§8) If the synergy factor was >1, there was a synergistic effect; if the synergistic factor=1, there was an additive effect; if the synergistic factor <1, there was an antagonistic effect.

OCI-LY1 cells = test: Flow cytometry analysis of apoptosis (Annexin V/PI), OCI-LY1; assay type: cell-based, human; settings: OCI-LY1, 24 hours; 15 nM Compound 6, 150 nM ibrutinib, or the combination
Experimental: as §3, §4

[3] = system: human OCI-LY1 (DLBCL) xenograft tumor; assay type: in vivo; settings: for RTV on the 43rd day after administration (mean ± standard error) / T/C (%) on day 43 after administration: Cpd. 6 100 mg/kg p.o. qd, Ibrutinib 15 mg/kg i.v. qd, day 43; for TGI (%) on day 43 after administration: TGI = 100 − T/C%
Experimental: as §5, §6, §7, §8
In short, when the average tumor volume reached approximately 90 mm^3, grouping and administration started. Ibrutinib was administered at a dose of 15 mg/kg, i.v., qd, from the day of grouping, for 3 weeks. […] On the 13th day after grouping, the administration was stopped and the observation period started.

[4] = system: human DOHH2 (FL) xenograft tumor; assay type: in vivo; settings: Cpd. 6 50 mg/kg, Ibrutinib 20 mg/kg
Experimental: (§9) . All animal experiments were strictly in accordance with the laboratory animal use and management practices of GenePharma Co., Ltd. and Ascentage Pharma Group Co., Ltd. The calculation of relevant parameters referred to the Chinese CFDA “Guidelines for Non-Clinical Research Techniques of Cytotoxic Antitumor Drugs”.
as §6
(§10) Tumor volume (TV) was calculated as: TV=a×b^2/2, in which a and b represented the length and width of the tumor as measured, respectively. The relative tumor volume (RTV) was calculated as: RTV=Vt/V1, in which V1 was the tumor volume at the time of grouping and administration, and Vt was the tumor volume measured on a day after administration. The evaluation index of anti-tumor activity was the relative tumor proliferation rate T/C (%), which was calculated as: relative tumor proliferation rate T/C (%)=(TRTV/CRTV)×100%, in which TRTV was the RTV of the treatment group, CRTV was the RTV of the vehicle control group; tumor remission rate (%) was calculated as: (the number of SD (stable disease), PR (tumor partial regression) and CR (tumor complete regression) in the tumor-bearing mice after treatment)/the total number of mice in the group×100%. Change of body weight %=(measured body weight−body weight at the time of grouping)/body weight at the time of grouping×100%.
(§11) ; The synergistic analysis was performed by the following formula: synergy factor=((A/C)×(B/C))/(AB/C); A=RTV value of the group administered with A only; B=RTV value of the group administered with B only; C=RTV value of the vehicle control group; AB=RTV value of the group administered with A and B in combination (Clarke R. Issues in experimental design and endpoint analysis in the study of experimental cytotoxic agents in vivo in breast cancer and other models [J]. Breast Cancer Research & Treatment, 1997, 46(2-3): 255-278). If the synergy factor was >1, there was a synergistic effect; if the synergistic factor=1, there was an additive effect; if the synergistic factor <1, there was an antagonistic effect.

[5] = system: human OCI-LY1 (DLBCL) xenograft tumor; assay type: in vivo; settings: Cpd. 6 50 mg/kg, Ibrutinib 20 mg/kg; for T/C on day 36 after administration: given as fraction
Experimental: as §9, §6, §10, §11

[6] = Cpd. 6 100 mg/kg, Ibrutinib 15 mg/kg
[7] = Cpd. 6 100 mg/kg, Ibrutinib 15 mg/kg, including CR, PR and SD
[8] = Cpd. 6 100 mg/kg, Ibrutinib 15 mg/kg, mice per group
[9] = Cpd. 6 100 mg/kg, Ibrutinib 15 mg/kg, mice per group, listed as Cpd. 6

`CC1(C)CCC(CN2CCN(c3ccc(C(=O)NS(=O)(=O)c4ccc(NCC5CCOCC5)c([N+](=O)[O-])c4)c(Oc4cnc5[nH]ccc5c4)c3)CC2)=C(c2ccc(Cl)cc2)C1` [ABT-199, reference compound] gave an IC50 (DOHH2 cells) of 51.1 nM and an IC50 (DOHH2^R-ibrutinib cells) of 1190 nM.

`O=C(NS(=O)(=O)c1ccc(NC[C@H]2COCCO2)c([N+](=O)[O-])c1)c1ccc(N2CCN(CC3=C(c4ccc(Cl)cc4)CC4(CCC4)CC3)CC2)cc1Oc1cnc2[nH]ccc2c1` [Compound 6, (S)-N-((4-(((1,4-dioxan-2-yl)methyl)amino)-3-nitrophenyl)sulfonyl)-2-((1H-pyrrolo[2,3-b]pyridin-5-yl)oxy)-4-(4-((6-(4-chlorophenyl)spiro[3.5]non-6-en-7-yl)methyl)piperazin-1-yl)benzamide] was tested, and the IC50 (DOHH2 cells) was 48.4 nM, the “anti-proliferative activities as a single agent compared with ABT-199” value [1] was “comparable if not better than ABT-199” and the “apoptosis induction (Annexin V / PI positive cells)” value (DOHH-2 cells) was “slightly enhanced apoptotic activity”. For the same compound, the “TGI (%) on day 32 after administration” value [2] was 81%, the “RTV on day 32 after administration (mean ± standard error)” value [2] was 2.4 ± 0.2 and the “T/C (%) on day 32 after administration” value [2] was 19%. For the same compound, the “apoptosis induction (Annexin V / PI positive cells)” value (OCI-LY1 cells) was “slightly enhanced apoptotic activity”, the IC50 (DOHH2^R-ibrutinib cells) was 648 nM and the “RTV on the 43rd day after administration (mean ± standard error)” value [3] was 1.03 ± 0.33. For the same compound, the “T/C (%) on day 43 after administration” value [3] was 4%, the “TGI (%) on day 43 after administration” value [3, 6] was 96% and the “RTV on day 50 after administration (mean ± standard error)” value [3, 6] was 2.64 ± 0.55. The “remission rate % on day 43 after administration” value [3, 7] was 20%, the “remission rate % on day 50 after administration” value [3, 7] was “( 10% )” and the “remission rate % on day 68 after administration” value [3, 7] was “PR ( 0% )”. For the same compound, the “remission rate % on day 43 after administration” value ([3]; Cpd. 6 100 mg/kg, Ibrutinib 15 mg/kg, including CR, PR and SD, listed as Cpd. 6) was “( 100% )”, the “Tumor status on day 43 after administration: CR (tumor complete regression)” value (shortened to “Tumor status … (tumor complete regression)”) [3, 8] was 1/5 and the “Tumor status on day 43 after administration: PR (tumor partial regression)” value (from here on “Tumor status … (tumor partial regression)”) [3, 8] was 1/5. The “Tumor status on day 50 after administration: CR” value [3, 8] was 0/5 CR,, the “Tumor status on day 50 after administration: PR” value [3, 8] was 1/5 PR and the “Tumor status on day 68 after administration: CR” value [3, 8] was 0/5 CR, 0/5. For the same compound, the “Tumor status on day 68 after administration: PR” value [3, 8] was 0/5 CR, 0/5, the “Tumor status … (tumor complete regression)” value [3, 9] was 1/5 CR, 1/5 and the “Tumor status … (tumor partial regression)” value [3, 9] was 1/5 CR, 1/5. The “RTV on day 35 after administration (mean ± standard error)” value [4] was 7.5 ± 0.7, the “T/C (%) on day 35 after administration” value [4] was 44.40% and the “RTV on day 36 after administration (mean ± standard error)” value [5] was 2.2 ± 0.4. The “T/C on day 36 after administration” value [5] was 0.090 and the “RTV on day 43 after administration” value ([5]; day 43) was 7.1 ± 0.4.

With `Cc1c(S(C)(=O)=O)c(-c2cc(F)cc(N3CCN(c4ccc(NS(=O)(=O)c5ccc(N[C@H](CCN6CCC(C(=O)O)CC6)CSc6ccccc6)c(S(=O)(=O)C(F)(F)F)c5)cc4)CC3)c2)c(-c2ccc(Cl)cc2)n1C(C)C` [Compound 88, (R)-1-(3-(4-(N-(4-(4-(3-(2-(4-chlorophenyl)-1-isopropyl-5-methyl-4-(methylsulfonyl)-1H-pyrrol-3-yl)-5-fluorophenyl)piperazin-1-yl)phenyl)-sulfamoyl)-2-(trifluoromethylsulfonyl)phenylamino)-4-(phenylthio)butyl)piperidine-4-carboxylic acid] the “time to cell death” value (DOHH2^R-ibrutinib cells; DOHH2^R-ibrutinib cells) was ≤ 24 h and the IC50 (DOHH2^R-ibrutinib cells) was 17 nM.

With `C=CC(=O)N1CCC[C@@H](n2nc(-c3ccc(Oc4ccccc4)cc3)c3c(N)ncnc32)C1` [Ibrutinib, reference compound] the IC50 (DOHH2 cells) was 73.5 nM, the “apoptosis induction (Annexin V / PI positive cells)” value (DOHH-2 cells) was “limited apoptosis activity” and the “TGI (%) on day 32 after administration” value [2] was 52%. The “RTV on day 32 after administration (mean ± standard error)” value [2] was 6.1 ± 0.8, the “T/C (%) on day 32 after administration” value [2] was 48% and the “apoptosis induction (Annexin V / PI positive cells)” value (OCI-LY1 cells) was “limited apoptosis activity”. For the same compound, the “increase of IC50 in DOHH2^R-ibrutinib versus DOHH2 cells” value (DOHH2^R-ibrutinib cells) was 160 fold, the IC50 (DOHH2^R-ibrutinib cells) was 12200 nM and the “RTV on the 43rd day after administration (mean ± standard error)” value [3] was 15.9 ± 7.63. For the same compound, the “T/C (%) on day 43 after administration” value [3] was 58%, the “TGI (%) on day 43 after administration” value [3, 6] was 42% and the “RTV on day 50 after administration (mean ± standard error)” value [3, 6] was 32.1 ± 1137. The “remission rate % on day 43 after administration” value [3, 7] was “PR ( 0% )”, the “remission rate % on day 50 after administration” value [3, 7] was “( 0% )” and the “Tumor status … (tumor complete regression)” value [3, 8] was 0/5 CR, 0/5. For the same compound, the “Tumor status … (tumor partial regression)” value [3, 8] was 0/5 CR, 0/5, the “Tumor status on day 50 after administration: CR” value [3, 8] was 0/5 CR, and the “Tumor status on day 50 after administration: PR” value [3, 8] was 0/5 PR. For the same compound, the “RTV on day 35 after administration (mean ± standard error)” value [4] was 11.4 ± 1.5, the “T/C (%) on day 35 after administration” value [4] was 67.7% and the “RTV on day 36 after administration (mean ± standard error)” value [5] was 20.5 ± 2.1. For the same compound, the “T/C on day 36 after administration” value [5] was 0.810.

Reference: patent publication US11478470B2, “Combination product of Bcl-2 inhibitor or Bcl-2/Bcl-xL dual inhibitor and BTK inhibitor and use thereof in the prevention and/or treatment of diseases” (ASCENTAGE PHARMA (SUZHOU) CO., LTD., priority 2018, dated 2022)
